Data from patent publication US9079854B2 (priority 2007, dated 2015).
Like-named read-outs stand apart in the source and are kept apart here.

What was measured:
[1] = target: T1, human CB1 (hCB1) receptor (Homo sapiens, UniProt P21554); assay: CB1 binding assay, competitive binding of [3H]CP 55940; settings: for % Inhibition of Control Specific Binding / % of Control Specific Binding 1st / % of Control Specific Binding 2nd / % of Control Specific Binding Mean: CB1, Test Concentration 1.0E−05 (MD); for % of Control Specific Binding 1st: 1st determination; for % of Control Specific Binding 2nd: 2nd determination; for inhibition at 10 µM / inhibition at 1 µM: specific binding of [3H]-CP55940; for inhibition at 1 µM: CHO membranes
T1 construct: expressed in transfected cells; host or cells: CHO (Chinese hamster ovary) cells, membranes
Protocol: Cell membrane homogenates (25 μg protein) are incubated for 120 min at 37° C. with 0.5 nM [^3H]CP 55940 (the reference standard [Rinaldi-Carmona, 1996 #1320]) in the absence or presence of the test compound in a buffer containing 50 mM Tris HCl (pH 7.4), 5 mM MgCl2, 2.5 mM EDTA, and 0.3% bovine serum albumin (BSA). […]
(§1) […] [^3H]-CP55940 at a concentration of 0.5 nM and [^3H]-WIN55212 at a concentration of 0.8 nM were used as radioligands for hCB1 and hCB2 assays, respectively. The results are expressed as a percent inhibition of control specific binding. Compounds which displaced the radioligand by more than 50% for either hCB1 or hCB2 receptors were arbitrary chosen for functional activity determination.

[2] = target: T2, human CB2 (hCB2) receptor (Homo sapiens, UniProt P34972); assay: CB2 binding assay, competitive binding of [3H]WIN 55212-2; settings: for % Inhibition of Control Specific Binding / % of Control Specific Binding 1st / % of Control Specific Binding 2nd / % of Control Specific Binding Mean: CB2, Test Concentration 1.0E−05 (MD); for % of Control Specific Binding 1st: 1st determination; for % of Control Specific Binding 2nd: 2nd determination; for inhibition at 10 µM / inhibition at 1 µM: specific binding of [3H]-WIN55212-2; for inhibition at 1 µM: CHO membranes
T2 construct: expressed in transfected cells; host or cells: CHO (Chinese hamster ovary) cells, membranes
Protocol: Cell membrane homogenates (15 μg protein) are incubated for 120 min at 37° C. with 0.8 nM [^3H]WIN 55212-2 (the reference standard [Munro, 1993 #1321]) in the absence or presence of the test compound in a buffer containing 50 mM HEPES/Tris HCL (pH 7.4), 5 mM MgCl2, 2.5 mM EGTA, and 0.1% BSA. Nonspecific binding is determined in the presence of 10 μM WIN 55212-2. After being incubated, the samples are filtered rapidly under vacuum through glass fiber filters (GF/B; Packard) presoaked with 0.3% PEI and rinsed several times with ice-cold buffer containing 50 mM Tris HCl (pH 7.4) and 0.5% BSA using a 96-sample cell harvester (Unifilter; Packard). The filters are dried then counted for radioactivity in a scintillation counter (Topcount; Packard) using a scintillation cocktail (Microscint 0; Packard). The results are expressed as a percentage of the inhibition of the control radioligand-specific binding. The reference standard compounds are tested in each experiment at several concentrations to obtain a competition curve from which its IC50 is calculated.
as §1

[3] = at 10 μM, read-out: % inhibition hCB2 receptor
[4] = read-out: % inhibition hCB2 receptor, at 10 μM
[5] = read-out: % inhibition hCB2 receptor, at 1 μM

T2 sequence (P34972 whole entry): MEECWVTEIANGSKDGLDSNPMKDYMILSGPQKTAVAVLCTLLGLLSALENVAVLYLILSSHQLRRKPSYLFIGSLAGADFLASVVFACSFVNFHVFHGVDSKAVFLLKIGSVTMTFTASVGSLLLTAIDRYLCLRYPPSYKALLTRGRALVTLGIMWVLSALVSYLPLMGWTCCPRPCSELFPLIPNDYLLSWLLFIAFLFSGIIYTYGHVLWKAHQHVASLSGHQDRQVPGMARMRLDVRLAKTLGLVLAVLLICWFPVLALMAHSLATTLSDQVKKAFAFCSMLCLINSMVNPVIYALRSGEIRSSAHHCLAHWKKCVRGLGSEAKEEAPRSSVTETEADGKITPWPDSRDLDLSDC
T1 sequence (P21554 whole entry): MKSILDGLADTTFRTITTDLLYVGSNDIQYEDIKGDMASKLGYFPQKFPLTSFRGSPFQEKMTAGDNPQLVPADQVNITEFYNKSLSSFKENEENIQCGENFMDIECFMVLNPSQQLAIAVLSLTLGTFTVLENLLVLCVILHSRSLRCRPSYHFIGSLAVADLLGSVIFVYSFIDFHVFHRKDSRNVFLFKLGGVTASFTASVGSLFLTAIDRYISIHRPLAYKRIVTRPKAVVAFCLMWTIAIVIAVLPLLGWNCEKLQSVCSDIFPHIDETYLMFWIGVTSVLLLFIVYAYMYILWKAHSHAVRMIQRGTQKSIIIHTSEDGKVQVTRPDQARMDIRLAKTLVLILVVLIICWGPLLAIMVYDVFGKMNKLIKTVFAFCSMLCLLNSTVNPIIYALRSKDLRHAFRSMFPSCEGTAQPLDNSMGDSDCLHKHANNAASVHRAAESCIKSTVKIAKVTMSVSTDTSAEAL

| SMILES | % Inhibition of Control Specific Binding [1] [%] | % of Control Specific Binding 1st [1] [%] | % of Control Specific Binding 2nd [1] [%] | % of Control Specific Binding Mean [1] [%] | inhibition at 10 µM [1] [%] | % Inhibition of Control Specific Binding [2] [%] | % of Control Specific Binding 1st [2] [%] | % of Control Specific Binding 2nd [2] [%] | % of Control Specific Binding Mean [2] [%] | inhibition at 10 µM [2, 3] [%] | inhibition at 10 µM [2, 4] [%] | inhibition at 1 µM [1] [%] | inhibition at 1 µM [2, 5] [%] | inhibition at 1 µM ([2]; at 1 μM, read-out: % inhibition hCB2 receptor) [%] |
| --- | --- | --- | --- | --- | --- | --- | --- | --- | --- | --- | --- | --- | --- | --- |
| O=C1/C(=N\NC(=S)Nc2ccccc2)c2ccccc2N1CCC1CCCCC1 [Example 1, Phenyl thiocarbamoyl[1-(2-cyclohexyl-ethyl)-2-oxo-1,2-dihydro-indol-3-ylidene]-hydrazide] | 36 | 68.6 | 59.6 | 64.1 | < 40 | 15 | 83.3 | 87.6 | 85.4 | < 40 |  |  |  |  |
| CCCCCCN1C(=O)/C(=N\NC(=S)Nc2ccccc2)c2ccccc21 [Example 2, Phenyl thiocarbamoyl[1-n-hexyl-2-oxo-1,2-dihydro-indol-3-ylidene]-hydrazide] |  | 45.8 | 56.1 | 51 | 49 ± 5.2 | 38 | 59.8 | 64.7 | 62.3 | 37.7 ± 2.5 |  |  |  |  |
| O=C(N/N=C1\C(=O)N(CCC2CCCCC2)c2ccccc21)Nc1ccccc1 [Example 3] | 34 | 54.1 | 78.5 | 66.3 | < 40 | −3 | 98.6 | 107.1 | 102.8 |  | < 40 |  |  |  |
| CCCCCCN1C(=O)/C(=N\NC(=O)Nc2ccccc2)c2ccccc21 [Example 4, Phenyl carbamoyl[1-n-hexyl-2-oxo-1,2-dihydro-indol-3-ylidene]-hydrazide] | 37 | 64.3 | 61.4 | 62.9 | < 40 | −8 | 105.7 | 109.7 | 107.7 |  | < 40 |  |  |  |
| O=C1/C(=N\NS(=O)(=O)c2ccccc2)c2ccccc2N1CCC1CCCCC1 [Example 8] | 16 | 77.2 | 90 | 83.6 | < 40 | 9 | 89.2 | 93.3 | 91.2 | < 40 |  |  |  |  |
| CCCCCCN1C(=O)/C(=N\NS(=O)(=O)c2ccccc2)c2ccccc21 [Example 9, Phenyl sulfonyl[1-n-hexyl-2-oxo-1,2-dihydro-indol-3-ylidene]-hydrazide] | 8 | 87.7 | 96.1 | 91.9 | < 40 | −14 | 126.5 | 100.6 | 113.5 | < 40 |  |  |  |  |
| CCCCCCN1C(=O)/C(=N\NC(=O)CCCCC)c2ccccc21 [Example 12, N′-[(3Z)-1-hexyl-2-oxo-1,2-dihydro-3H-indol-3-ylidene]hexanohydrazide] |  |  |  |  |  |  |  |  |  |  |  | 45.2 ± 9.5 | 36.6 ± 8.8 |  |
| CCCCCCN1C(=O)/C(=N\NC(=O)c2ccc(Cl)cc2)c2ccccc21 [Example 13, 4-chloro-N′-[(3Z)-1-hexyl-2-oxo-1,2-dihydro-3H-indol-3-ylidene]benzohydrazide] |  |  |  |  |  |  |  |  |  |  |  | 46.6 ± 4.3 | 32.7 ± 5.3 |  |
| CCCCCCN1C(=O)/C(=N\NC(=O)c2ccc3ccccc3c2)c2ccccc21 [Example 16, N′-[(3Z)-1-hexyl-2-oxo-1,2-dihydro-3H-indol-3-ylidene]-2-naphthohydrazide] |  |  |  |  |  |  |  |  |  |  |  | < 30 | < 30 |  |
| CCCCCCN1C(=O)/C(=N\NC(=O)c2cc3ccccc3s2)c2ccccc21 [Example 18, N′-[(3Z)-1-hexyl-2-oxo-1,2-dihydro-3H-indol-3-ylidene]-1-benzothiophene-2-carbohydrazide] |  |  |  |  |  |  |  |  |  |  |  | < 30 | < 30 |  |
| CCCCCCCCCCCCN1C(=O)/C(=N\NC(=O)c2ccccc2)c2ccccc21 [Example 24, N′-[(3Z)-1-(1-dodecyl)-2-oxo-1,2-dihydro-3H-indol-3-ylidene]benzohydrazide] |  |  |  |  |  |  |  |  |  |  |  | 23.8 ± 4.5 | 24.3 ± 4.1 |  |
| O=C(N/N=C1\C(=O)N(CCN2C(=O)c3ccccc3C2=O)c2ccccc21)c1ccccc1 [Example 27, N′-{[3Z]-1-[2-(1,3-dioxo-1,3-dihydro-2H-isoindol-2-yl)ethyl]-2-oxo-1,2-dihydro-3H-indol-3-ylidene}benzohydrazide] |  |  |  |  |  |  |  |  |  |  |  | 3 ± 4.1 |  | 3 ± 3.2 |
| CCCCCCN1C(=O)/C(=N\NC(=O)c2ccccc2)c2cc(C)ccc21 [Example 31, N′-[(3Z)-1-hexyl-5-methyl-2-oxo-1,2-dihydro-3H-indol-3-ylidene]benzohydrazide] |  |  |  |  |  |  |  |  |  |  |  | 22 ± 0.9 | 1 ± 2.7 |  |
| CCCCCCN1C(=O)/C(=N\NC(=O)c2ccccc2)c2cc(OC)ccc21 [Example 32, N′-[(3Z)-1-hexyl-5-methoxy-2-oxo-1,2-dihydro-3H-indol-3-ylidene]benzohydrazide] |  |  |  |  |  |  |  |  |  |  |  | 26 ± 3.1 | 17 ± 1.2 |  |
| CCCCCCN1C(=O)/C(=N\NC(=O)c2ccccc2)c2cc(Cl)ccc21 [Example 34, N′-[(3Z)-5-chloro-1-hexyl-2-oxo-1,2-dihydro-3H-indol-3-ylidene]benzohydrazide] |  |  |  |  |  |  |  |  |  |  |  | 9 ± 1.4 | 6 ± 1.4 |  |
| CCCCCN1C(=O)/C(=N\NC(=O)c2ccccc2)c2cc(I)ccc21 [Example 35, N′-[(3Z)-5-iodo-2-oxo-1-pentyl-1,2-dihydro-3H-indol-3-ylidene]benzohydrazide] |  |  |  |  |  |  |  |  |  |  |  | 25 ± 0.2 | 10 ± 0.2 |  |
